test: The drug is tested on Edwardsiella tarda strain: ATCC23685 for biotransformation. The drug concentrations were measured before and after a 12-h incubation by liquid-chromatography-coupled mass spectrometry (LC–MS); details: 2 µM

Row | Structure (SMILES) | Bacterial Biotransformation
1 | CCCc1nn(C)c2c(=O)[nH]c(-c3cc(S(=O)(=O)N4CCN(C)CC4)ccc3OCC)nc12.O=C(O)CC(O)(CC(=O)O)C(=O)O [SILDENAFIL CITRATE] | Compound NOT metabolized
2 | CCOC(=O)C1=C[C@]2(CC)CCCN3CCc4c(n1c1ccccc41)[C@@H]32 [VINPOCETINE] | Compound NOT metabolized

test: The drug is tested on Bacteroides coprophilus strain: DSM18228 for biotransformation. The drug concentrations were measured before and after a 12-h incubation by liquid-chromatography-coupled mass spectrometry (LC–MS); details: 2 µM

Row | Structure (SMILES) | Bacterial Biotransformation
3 | CCCc1nn(C)c2c(=O)[nH]c(-c3cc(S(=O)(=O)N4CCN(C)CC4)ccc3OCC)nc12.O=C(O)CC(O)(CC(=O)O)C(=O)O [SILDENAFIL CITRATE] | Compound metabolized
4 | CCOC(=O)C1=C[C@]2(CC)CCCN3CCc4c(n1c1ccccc41)[C@@H]32 [VINPOCETINE] | Compound NOT metabolized

details: bacteroides thetaiotaomicron, 12 h, 2 µM
Description: The drug is tested on Bacteroides thetaiotaomicron strain: 7330 for biotransformation. The drug concentrations were measured before and after a 12-h incubation by liquid-chromatography-coupled mass spectrometry (LC–MS)

Row | Structure (SMILES) | Bacterial Biotransformation
5 | CCCc1nn(C)c2c(=O)[nH]c(-c3cc(S(=O)(=O)N4CCN(C)CC4)ccc3OCC)nc12.O=C(O)CC(O)(CC(=O)O)C(=O)O [SILDENAFIL CITRATE] | Compound NOT metabolized
6 | CCOC(=O)C1=C[C@]2(CC)CCCN3CCc4c(n1c1ccccc41)[C@@H]32 [VINPOCETINE] | Compound NOT metabolized

test: The drug is tested on Collinsella intestinalis strain: DSM13280 for biotransformation. The drug concentrations were measured before and after a 12-h incubation by liquid-chromatography-coupled mass spectrometry (LC–MS); details: 2 µM

Row | Structure (SMILES) | Bacterial Biotransformation
7 | CCCc1nn(C)c2c(=O)[nH]c(-c3cc(S(=O)(=O)N4CCN(C)CC4)ccc3OCC)nc12.O=C(O)CC(O)(CC(=O)O)C(=O)O [SILDENAFIL CITRATE] | Compound NOT metabolized
8 | CCOC(=O)C1=C[C@]2(CC)CCCN3CCc4c(n1c1ccccc41)[C@@H]32 [VINPOCETINE] | Compound NOT metabolized

details: enterocloster bolteae, 12 h, 2 µM
Description: The drug is tested on Clostridium bolteae strain: ATCCBAA-613 for biotransformation. The drug concentrations were measured before and after a 12-h incubation by liquid-chromatography-coupled mass spectrometry (LC–MS)

Row | Structure (SMILES) | Bacterial Biotransformation
9 | CCOC(=O)C1=C[C@]2(CC)CCCN3CCc4c(n1c1ccccc41)[C@@H]32 [VINPOCETINE] | Compound NOT metabolized

test: The drug is tested on Bifidobacterium longum subsp. Infantis strain: CCUG52486 for biotransformation. The drug concentrations were measured before and after a 12-h incubation by liquid-chromatography-coupled mass spectrometry (LC–MS); details: 2 µM

Row | Structure (SMILES) | Bacterial Biotransformation
10 | CCCc1nn(C)c2c(=O)[nH]c(-c3cc(S(=O)(=O)N4CCN(C)CC4)ccc3OCC)nc12.O=C(O)CC(O)(CC(=O)O)C(=O)O [SILDENAFIL CITRATE] | Compound NOT metabolized
11 | CCOC(=O)C1=C[C@]2(CC)CCCN3CCc4c(n1c1ccccc41)[C@@H]32 [VINPOCETINE] | Compound NOT metabolized

details: bacteroides eggerthii, 12 h, 2 µM
Description: The drug is tested on Bacteroides eggerthii strain: DSM20697 for biotransformation. The drug concentrations were measured before and after a 12-h incubation by liquid-chromatography-coupled mass spectrometry (LC–MS)

Row | Structure (SMILES) | Bacterial Biotransformation
12 | CCCc1nn(C)c2c(=O)[nH]c(-c3cc(S(=O)(=O)N4CCN(C)CC4)ccc3OCC)nc12.O=C(O)CC(O)(CC(=O)O)C(=O)O [SILDENAFIL CITRATE] | Compound NOT metabolized
13 | CCOC(=O)C1=C[C@]2(CC)CCCN3CCc4c(n1c1ccccc41)[C@@H]32 [VINPOCETINE] | Compound NOT metabolized

test: The drug is tested on Anaerococcus hydrogenalis strain: DSM7454 for biotransformation. The drug concentrations were measured before and after a 12-h incubation by liquid-chromatography-coupled mass spectrometry (LC–MS); details: 2 µM

Row | Structure (SMILES) | Bacterial Biotransformation
14 | CCCc1nn(C)c2c(=O)[nH]c(-c3cc(S(=O)(=O)N4CCN(C)CC4)ccc3OCC)nc12.O=C(O)CC(O)(CC(=O)O)C(=O)O [SILDENAFIL CITRATE] | Compound metabolized
15 | CCOC(=O)C1=C[C@]2(CC)CCCN3CCc4c(n1c1ccccc41)[C@@H]32 [VINPOCETINE] | Compound NOT metabolized

test: The drug is tested on Bacteroides pectinophilus strain: ATCC43243 for biotransformation. The drug concentrations were measured before and after a 12-h incubation by liquid-chromatography-coupled mass spectrometry (LC–MS); details: 2 µM

Row | Structure (SMILES) | Bacterial Biotransformation
16 | CCCc1nn(C)c2c(=O)[nH]c(-c3cc(S(=O)(=O)N4CCN(C)CC4)ccc3OCC)nc12.O=C(O)CC(O)(CC(=O)O)C(=O)O [SILDENAFIL CITRATE] | Compound NOT metabolized
17 | CCOC(=O)C1=C[C@]2(CC)CCCN3CCc4c(n1c1ccccc41)[C@@H]32 [VINPOCETINE] | Compound NOT metabolized

test: The drug is tested on Parabacteroides merdae strain: ATCC43184 for biotransformation. The drug concentrations were measured before and after a 12-h incubation by liquid-chromatography-coupled mass spectrometry (LC–MS); details: 2 µM

Row | Structure (SMILES) | Bacterial Biotransformation
18 | CCCc1nn(C)c2c(=O)[nH]c(-c3cc(S(=O)(=O)N4CCN(C)CC4)ccc3OCC)nc12.O=C(O)CC(O)(CC(=O)O)C(=O)O [SILDENAFIL CITRATE] | Compound NOT metabolized
19 | CCOC(=O)C1=C[C@]2(CC)CCCN3CCc4c(n1c1ccccc41)[C@@H]32 [VINPOCETINE] | Compound NOT metabolized

test: The drug is tested on Ruminococcus gnavus strain: ATCC29149 for biotransformation. The drug concentrations were measured before and after a 12-h incubation by liquid-chromatography-coupled mass spectrometry (LC–MS); details: mediterraneibacter gnavus, 2 µM

Row | Structure (SMILES) | Bacterial Biotransformation
20 | CCCc1nn(C)c2c(=O)[nH]c(-c3cc(S(=O)(=O)N4CCN(C)CC4)ccc3OCC)nc12.O=C(O)CC(O)(CC(=O)O)C(=O)O [SILDENAFIL CITRATE] | Compound NOT metabolized
21 | CCOC(=O)C1=C[C@]2(CC)CCCN3CCc4c(n1c1ccccc41)[C@@H]32 [VINPOCETINE] | Compound NOT metabolized

test: The drug is tested on Providencia stuartii strain: ATCC25827 for biotransformation. The drug concentrations were measured before and after a 12-h incubation by liquid-chromatography-coupled mass spectrometry (LC–MS); details: 2 µM

Row | Structure (SMILES) | Bacterial Biotransformation
22 | CCCc1nn(C)c2c(=O)[nH]c(-c3cc(S(=O)(=O)N4CCN(C)CC4)ccc3OCC)nc12.O=C(O)CC(O)(CC(=O)O)C(=O)O [SILDENAFIL CITRATE] | Compound NOT metabolized
23 | CCOC(=O)C1=C[C@]2(CC)CCCN3CCc4c(n1c1ccccc41)[C@@H]32 [VINPOCETINE] | Compound NOT metabolized

details: bacteroides stercoris, 12 h, 2 µM
Description: The drug is tested on Bacteroides stercoris strain: ATCC43183 for biotransformation. The drug concentrations were measured before and after a 12-h incubation by liquid-chromatography-coupled mass spectrometry (LC–MS)

Row | Structure (SMILES) | Bacterial Biotransformation
24 | CCCc1nn(C)c2c(=O)[nH]c(-c3cc(S(=O)(=O)N4CCN(C)CC4)ccc3OCC)nc12.O=C(O)CC(O)(CC(=O)O)C(=O)O [SILDENAFIL CITRATE] | Compound NOT metabolized
25 | CCOC(=O)C1=C[C@]2(CC)CCCN3CCc4c(n1c1ccccc41)[C@@H]32 [VINPOCETINE] | Compound NOT metabolized

details: bacteroides intestinalis, 12 h, 2 µM
Description: The drug is tested on Bacteroides intestinalis strain: DSM17393 for biotransformation. The drug concentrations were measured before and after a 12-h incubation by liquid-chromatography-coupled mass spectrometry (LC–MS)

Row | Structure (SMILES) | Bacterial Biotransformation
26 | CCCc1nn(C)c2c(=O)[nH]c(-c3cc(S(=O)(=O)N4CCN(C)CC4)ccc3OCC)nc12.O=C(O)CC(O)(CC(=O)O)C(=O)O [SILDENAFIL CITRATE] | Compound NOT metabolized
27 | CCOC(=O)C1=C[C@]2(CC)CCCN3CCc4c(n1c1ccccc41)[C@@H]32 [VINPOCETINE] | Compound NOT metabolized

details: limosilactobacillus reuteri cf48-3a, 12 h, 2 µM
Description: The drug is tested on Lactobacillus reuteri CF48-3A strain: BEI HM-102 for biotransformation. The drug concentrations were measured before and after a 12-h incubation by liquid-chromatography-coupled mass spectrometry (LC–MS)

Row | Structure (SMILES) | Bacterial Biotransformation
28 | CCCc1nn(C)c2c(=O)[nH]c(-c3cc(S(=O)(=O)N4CCN(C)CC4)ccc3OCC)nc12.O=C(O)CC(O)(CC(=O)O)C(=O)O [SILDENAFIL CITRATE] | Compound metabolized
29 | CCOC(=O)C1=C[C@]2(CC)CCCN3CCc4c(n1c1ccccc41)[C@@H]32 [VINPOCETINE] | Compound NOT metabolized

test: The drug is tested on Bacteroides sp. WH2 strain: WH2 for biotransformation. The drug concentrations were measured before and after a 12-h incubation by liquid-chromatography-coupled mass spectrometry (LC–MS); details: bacteroides sp. wh2, 12 h, 2 µM

Row | Structure (SMILES) | Bacterial Biotransformation
30 | CCCc1nn(C)c2c(=O)[nH]c(-c3cc(S(=O)(=O)N4CCN(C)CC4)ccc3OCC)nc12.O=C(O)CC(O)(CC(=O)O)C(=O)O [SILDENAFIL CITRATE] | Compound NOT metabolized
31 | CCOC(=O)C1=C[C@]2(CC)CCCN3CCc4c(n1c1ccccc41)[C@@H]32 [VINPOCETINE] | Compound NOT metabolized

test: The drug is tested on Collinsella aerofaciens strain: ATCC25986 for biotransformation. The drug concentrations were measured before and after a 12-h incubation by liquid-chromatography-coupled mass spectrometry (LC–MS); details: 2 µM

Row | Structure (SMILES) | Bacterial Biotransformation
32 | CCOC(=O)C1=C[C@]2(CC)CCCN3CCc4c(n1c1ccccc41)[C@@H]32 [VINPOCETINE] | Compound NOT metabolized

From ChEMBL document CHEMBL5303573, “Mapping human microbiome drug metabolism by gut bacteria and their genes” (Nature, 2019)
